Test results from US7429607B2, “5-HT2B receptor antagonists” (Asterand UK Limited, priority 2002, dated 2008).

Tests used:
[1] = target: T1, cloned human 5-HT2C receptor (Homo sapiens, UniProt P28335); test: Human 5-HT2C receptor binding assay ([3H]mesulergine, CHO-K1 membranes); conditions: displacement of [3H]mesulergine (1 nM), read-out: 5-HT2C pKi (converted)
T1 construct: purchased Euroscreen; host or cells: CHO-K1 cells
T1 sequence (P28335 33-458): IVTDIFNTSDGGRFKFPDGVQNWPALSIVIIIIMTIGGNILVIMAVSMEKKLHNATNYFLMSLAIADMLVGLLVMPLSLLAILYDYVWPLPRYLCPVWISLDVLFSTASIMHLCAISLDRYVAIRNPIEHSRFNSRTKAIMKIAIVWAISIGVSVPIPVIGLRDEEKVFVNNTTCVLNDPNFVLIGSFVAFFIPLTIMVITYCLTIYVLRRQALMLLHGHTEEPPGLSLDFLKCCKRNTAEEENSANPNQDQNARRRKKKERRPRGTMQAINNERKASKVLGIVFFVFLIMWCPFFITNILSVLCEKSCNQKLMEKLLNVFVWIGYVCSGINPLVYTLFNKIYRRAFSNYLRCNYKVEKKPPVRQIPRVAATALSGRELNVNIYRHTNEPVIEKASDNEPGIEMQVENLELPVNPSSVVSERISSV
Experimental: (§1) The binding affinity of ligands for human 5-HT2A and 5-HT2C receptors was determined using the following assay.
Membrane preparations from CHO-K1 cells expressing the cloned human 5-HT2C receptor were obtained (Euroscreen). The membranes were thawed rapidly and diluted in assay buffer containing Tris-HCl (50 mM, pH 7.7), ascorbic acid (0.1%) and pargyline (10 μM). The membranes were resuspended by homogenisation, prior to adding 6 μg of membranes to assay wells containing [^3H] mesulergine (1 nM), assay buffer (50 mM Tris at pH 7.7 and 0.1% ascorbic acid) containing pargyline (10 μM), and test compounds (1×10^−10 to 1×10^−4M). Non specific binding was determined in the presence of 100 μM mianserin. After 30 minutes incubation at 37° C., the assay mixture was filtered through a combination of GF-C and GF-B filters, pre-soaked in 1% bovine serum albumin, using a Brandel cell harvester, and were washed three times using ice cold Tris-HCl buffer (50 mM). Radioactivity retained on the filters was determined by liquid scintillation counting. For each test compound, the concentration that inhibited binding of [3H]mesulergine by 50% was determined using curve fitting software (Prism). Kd values (concentration of mesulergine required to occupy 50% of the receptor binding sites at equlibrium) determined from saturation binding studies were then used to calculate inhibition dissociation constants (Ki) using the following equation: […]

[2] = target: T2, human cloned 5-HT2B receptors (Homo sapiens, UniProt P41595); test: Human cloned 5-HT2B cell-based functional assay (Fluo-4, CHO.K1 cells); conditions: inhibition of 5-HT response, CHO.K1 cells expressing cloned 5-HT2B, Fluo-4 AM
T2 construct: expressed in transfected cells; host or cells: CHO-K1 cells
Experimental: The following describes an in vitro functional assay using human cloned 5-HT2B receptors to determine the ability of compounds to block the receptor. CHO.K1 cells expressing cloned 5-HT2B receptor were maintained In Ultra-CHO medium containing 400 μg/ml of G418, 100 U/ml penicillin, 100 μg/ml streptomycin, 2.5 μg/ml fungizone, in 95/5% O2/CO2 at 37° C. Ultra-CHO medium additionally supplemented with 1% foetal bovine serum was used when seeding the cells and removed after 5 hours. Cells were plated in Costar 96 well white, clear-bottomed plate at a density of 50,000 cells per well and incubated for at least 24 hours in 95/5% O2/CO2 at 37° C. before running the assay. Media was removed from the wells and 200 μl of 4 μM Fluo-4 AM added, this was incubated in a Wallace Victor 2V workstation at 37° C. for 30 minutes. The Fluo-4 AM was then removed from the wells, which were then washed twice with 200 μl of buffer (HBSS without calcium/magnesium/phenol red, 20 mM HEPES, 1 mM Ca^2+, 1 mM Mg^2+, 2.5 mM probenecid, pH to 7.4), 180 μl of buffer or test compound was added to the well and incubated for 30 minutes. The Victor 2V injectors were used to inject 20 μl of 5-HT after obtaining 10 0.1-second baseline readings at 535 nm, followed by 150 readings. All test compounds were aliquoted in 100% DMSO at 10 mM and diluted to 1 mM in 50% DMSO, subsequent dilutions were made using buffer. Buffer was also used to dilute the 5-HT. Data were analysed using Microsoft Excel and GraphPad Prism, with the latter used to produce sigmoidal dose-response curves for each compound. The compound concentration that inhibited the 5-HT response by 50% was taken (IC50-M), and the results are shown in Table 3, as pIC50, being the negative log (to the base 10) of the measured IC50 values.

[3] = target: T2, human cloned 5-HT2B receptors; test: Human cloned 5-HT2B receptor binding assay ([3H]LSD, CHO-K1 membranes); conditions: displacement of [3H]LSD (1 nM), read-out: 5-HT2B pKi (converted)
Experimental: The binding affinity of the compounds for human cloned 5-HT2B receptors was determined using the following assay.
CHO-K1 cells expressing cloned 5-HT2B receptor were maintained in Ultra-CHO medium containing 400 μg/ml of G418, 100 U/ml penicillin, 100 μg/ml streptomycin, 2.5 μg/ml fungizone and 1% foetal bovine serum, in 95/5% O2/CO2 at 37° C. The cells were harvested using 0.25% trypsin and were centrifuged at 800 rpm for 8 minutes. The cells were homogenised in 50 mM HEPES buffer containing 1 mM disodium EDTA and 1 mM PMSF at pH 7.4, using a Dounce homogeniser (20 strokes). The homogenate was centrifuged at 2280 rpm (1000 g) and 4° C. for 10 minutes, after which the supernatant was removed by decanting. The pellet was re-homogenised as above, and the resulting supernatant removed and combined with that already obtained. The supernatant solution was then centrifuged at 18300 rpm (40000 g) for 10 minutes at 4° C. using a Sorvall centrifuge. The supernatant was removed, and the pellet was re-suspended in 50 mM buffer at pH 7.4 using a Ultra-turrax T25 Polytron, before centrifugation again at 40000 g as above. This wash procedure was repeated, after which the membrane preparation was stored at a concentration of 1 mg/ml at −80° C. until use.
The membranes were thawed rapidly and diluted in assay buffer containing Tris-HCl (50 mM, pH 7.4), ascorbic acid (0.1%) and calcium chloride (4 mM). The membranes were homogenised to resuspend them, prior to adding 10 or 15 μg of membranes to assay wells containing [^3H]LSD (1 nM), assay buffer (50 mM Tris, 4 mM calcium chloride and 0.1% ascorbic acid) containing pargyline (10 μM), and the test compounds (1×10^−10 to 1×10^−4M). Non specific binding was determined in the presence of 100 μM 5-HT. After 30 minutes incubation at 37° C., the assay mixture was filtered through a combination of GF-C and GF-B filters, pre-soaked in 1% polyethyleneimine, using a Brandel cell harvester, and were washed three times using 50 mM Tris-HCl. Radioactivity retained on the filters was determined by liquid scintillation counting. For each test compound, the concentration that inhibited binding of [3H]LSD by 50% was determined using curve fitting software (Prism). Kd values (concentration of LSD required to occupy 50% of the receptor binding sites at equilibrium) determined from saturation binding studies were then used to calculate inhibition dissociation constants (Ki) using the following equation: […]
This approach follows that set out in Kenakin, T.P. Pharmacologic analysis of drug-receptor interaction. Raven Press, New York, 2nd Edition.

[4] = target: T3, cloned human 5-HT2A receptor (Homo sapiens, UniProt P28223); test: Human 5-HT2A receptor binding assay ([3H]ketanserin, CHO-K1 membranes); conditions: displacement of [3H]ketanserin (1 nM), read-out: 5-HT2A pKi (converted)
T3 construct: purchased Euroscreen; host or cells: CHO-K1 cells
Experimental: as §1
Membrane preparations from CHO-K1 cells expressing the cloned human 5-HT2A receptor were obtained (Euroscreen). The membranes were thawed rapidly and diluted in assay buffer containing Tris-HCl (50 mM, pH 7.7). The membranes were resuspended by homogenisation, prior to adding 15 μg of membranes to assay wells containing [3H] ketanserin (1 nM), assay buffer (50 mM Tris at pH 7.4) containing pargyline (10 μM), and test compounds (1×10^−10 to 1×10^−4M). Non specific binding was determined in the presence of 100 μM mianserin. After 15 minutes incubation at 37° C., the assay mixture was filtered through a combination of GF-C and GF-B filters, pre-soaked in 0.05% Brij, using a Brandel cell harvester, and were washed three times using ice cold Tris-HCl buffer (50 mM). Radioactivity retained on the filters was determined by liquid scintillation counting. For each test compound, the concentration that inhibited binding of [^3H]ketanserin by 50% was determined using curve fitting software (Prism). Kd values (concentration of ketanserin required to occupy 50% of the receptor binding sites at equlibrium) determined from saturation binding studies were then used to calculate inhibition dissociation constants (Ki) using the following equation: […]

T2 sequence (P41595 whole entry): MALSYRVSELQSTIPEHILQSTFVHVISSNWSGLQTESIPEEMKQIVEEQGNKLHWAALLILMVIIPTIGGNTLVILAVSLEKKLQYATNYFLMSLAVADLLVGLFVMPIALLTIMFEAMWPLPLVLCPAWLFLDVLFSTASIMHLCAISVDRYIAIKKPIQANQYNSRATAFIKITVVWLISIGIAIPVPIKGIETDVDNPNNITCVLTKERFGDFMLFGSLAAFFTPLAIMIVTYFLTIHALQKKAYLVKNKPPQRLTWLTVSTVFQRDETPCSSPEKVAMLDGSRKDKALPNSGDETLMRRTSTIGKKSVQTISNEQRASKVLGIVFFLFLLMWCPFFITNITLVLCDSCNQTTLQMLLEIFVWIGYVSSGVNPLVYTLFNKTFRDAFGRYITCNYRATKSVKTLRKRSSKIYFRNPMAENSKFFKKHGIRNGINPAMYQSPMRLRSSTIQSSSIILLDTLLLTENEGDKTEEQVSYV
T3 sequence (P28223 whole entry): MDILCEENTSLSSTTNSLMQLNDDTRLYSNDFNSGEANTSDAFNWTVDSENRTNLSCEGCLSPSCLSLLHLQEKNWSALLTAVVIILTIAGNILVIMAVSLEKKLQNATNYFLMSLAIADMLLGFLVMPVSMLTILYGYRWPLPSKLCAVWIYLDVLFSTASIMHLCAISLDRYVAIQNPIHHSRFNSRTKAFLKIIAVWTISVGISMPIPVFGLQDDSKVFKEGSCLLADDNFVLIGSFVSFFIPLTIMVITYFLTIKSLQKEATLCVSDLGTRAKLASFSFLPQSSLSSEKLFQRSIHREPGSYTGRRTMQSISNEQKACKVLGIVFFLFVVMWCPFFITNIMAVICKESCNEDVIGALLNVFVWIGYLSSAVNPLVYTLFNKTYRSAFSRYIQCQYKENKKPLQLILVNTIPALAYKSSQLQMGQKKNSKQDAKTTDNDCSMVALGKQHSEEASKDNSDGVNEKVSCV

Row | Structure (SMILES) | Ki [1] [µM] | IC50 [2] [µM] | Ki [3] [nM] | Ki [4] [µM] | melting point [°C]
1 | Cc1nc(N)oc1-c1cccc2ccccc12 [Compound 3, 2-amino-4-methyl-5-(naphth-1-yl)oxazole] | > 10 | < 0.1 | < 10 | > 10 | 187 to 189
2 | COc1ccc2ccccc2c1-c1coc(NC(C)=O)n1 [Compound 25, N-[4-(2-methoxy-naphthalen-1-yl)-oxazol-2-yl]-acetamide] | > 1 | < 1 | < 100 | > 1 | –
3 | Nc1nc(-c2ccc3ccccc3c2)co1 [Compound 16, 4-naphthalen-2-yl-oxazol-2-ylamine] | > 10 | < 10 | < 1000 | > 10 | –
4 | CNc1nc(-c2cccc3ccccc23)co1 [Compound 2, 2-methylamino-4-(naphth-1-yl)oxazole] | > 1 | < 10 | < 1000 | > 10 | 164 to 166
